Laboratory results: patent US8288379B2, “Thia-triaza-cyclopentazulenes” (Boehringer Ingelheim International GmbH, priority 2009, dated 2012)
pEC50, pIC50: −log10 of the molar value.

Experiments:
[1] = molecular target: T1, FRAP1 (mTOR) kinase (Homo sapiens, UniProt P42345); assay: Inhibition of mTOR-induced p-4E-BP1 phosphorylation (TR-FRET mTOR Activity Kit; Invitrogen); type: biochemical; conditions: 400 nM GFP-4E-BP1 substrate, ~150 ng/mL mTOR, one hour at room temperature
T1 construct: purchased Invitrogen PV4753
Method in brief: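 LanthaScreen TR-FRET: mTOR with GFP-4E-BP1 substrate in HEPES pH 7.5 buffer with 10 mM MnCl2, compound preincubated 30 min at RT, then ATP added and reacted 1 h at 20-25 °C. Stopped with EDTA plus Tb-anti-p4E-BP1 (pThr46), 1 h; GFP/Tb emission ratio over a 16-point curve, sigmoidal fit for IC50.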

[2] = test system: PC-3 cells; assay: Inhibition of proliferation: CyQuant PC-3; type: cell-based; conditions: 72 h; PC-3 human prostate carcinoma cells, incubated with compounds for 3 days, CyQuant NF DNA dye
Method in brief: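 PC-3 proliferation read by CyQuant NF: DNA-binding dye with membrane permeabilization reagent added after medium removal, 30-60 min incubation, fluorescence at Ex 485/Em 530 nm. Proliferation judged from cell counts of drug-treated versus untreated controls.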

T1 sequence (P42345 1360-2549 limits assumed): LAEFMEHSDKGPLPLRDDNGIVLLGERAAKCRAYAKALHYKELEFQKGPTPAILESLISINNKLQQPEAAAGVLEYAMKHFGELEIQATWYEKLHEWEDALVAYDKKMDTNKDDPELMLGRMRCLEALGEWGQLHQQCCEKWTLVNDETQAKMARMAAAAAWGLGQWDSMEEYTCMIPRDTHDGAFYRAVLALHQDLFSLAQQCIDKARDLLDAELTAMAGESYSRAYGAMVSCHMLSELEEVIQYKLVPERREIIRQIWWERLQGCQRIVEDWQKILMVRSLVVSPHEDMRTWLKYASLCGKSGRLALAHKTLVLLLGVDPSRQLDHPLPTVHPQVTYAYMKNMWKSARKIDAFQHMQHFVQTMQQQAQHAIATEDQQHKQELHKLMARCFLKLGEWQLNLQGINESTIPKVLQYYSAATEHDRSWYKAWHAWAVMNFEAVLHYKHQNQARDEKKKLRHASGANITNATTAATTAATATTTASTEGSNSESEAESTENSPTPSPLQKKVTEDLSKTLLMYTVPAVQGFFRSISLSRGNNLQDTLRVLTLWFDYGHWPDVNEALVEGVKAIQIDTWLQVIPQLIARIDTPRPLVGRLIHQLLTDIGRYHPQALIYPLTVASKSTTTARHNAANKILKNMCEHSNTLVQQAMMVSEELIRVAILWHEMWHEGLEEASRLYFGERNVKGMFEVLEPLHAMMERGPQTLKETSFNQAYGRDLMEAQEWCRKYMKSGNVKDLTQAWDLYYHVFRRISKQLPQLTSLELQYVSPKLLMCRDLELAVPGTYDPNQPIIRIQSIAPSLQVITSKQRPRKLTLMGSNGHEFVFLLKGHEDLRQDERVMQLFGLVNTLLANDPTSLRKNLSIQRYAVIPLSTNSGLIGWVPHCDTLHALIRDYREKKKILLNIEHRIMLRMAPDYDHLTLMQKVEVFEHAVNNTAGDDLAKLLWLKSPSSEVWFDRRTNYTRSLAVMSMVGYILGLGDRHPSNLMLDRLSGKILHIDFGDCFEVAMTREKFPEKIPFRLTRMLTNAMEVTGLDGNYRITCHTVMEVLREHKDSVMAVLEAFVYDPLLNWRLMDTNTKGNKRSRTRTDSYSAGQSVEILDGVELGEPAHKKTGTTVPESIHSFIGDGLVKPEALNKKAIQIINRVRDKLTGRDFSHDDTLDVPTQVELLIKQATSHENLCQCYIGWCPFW

SMILES	pIC50 [1]	pEC50 [2]
CC(=O)Nc1nc2c(s1)-c1c(c(-c3c[nH]cn3)nn1-c1ccccc1F)CCC2 [Example B-111, N-[1-(2-Fluoro-phenyl)-3-(1H-imidazol-4-yl)-1,4,5,6-tetrahydro-9-thia-1,2,7-triaza-cyclopenta[e]azulen-8-yl]-acetamide]	8.40	7.42
CC(=O)Nc1nc2c(s1)-c1c(c(-c3c[nH]cn3)nn1-c1ccccc1C)CCC2 [Example B-112, N-[3-(1H-imidazol-4-yl)-1-o-tolyl-1,4,5,6-tetrahydro-9-thia-1,2,7-triaza-cyclopenta[e]azulen-8-yl]-acetamide]	7.41	6.96
CC(=O)Nc1nc2c(s1)-c1c(c(-c3c[nH]cn3)nn1CC(C)C)CCC2 [Example B-113]	8.05	7.54
CC(=O)Nc1nc2c(s1)-c1c(c(-c3c[nH]cn3)nn1-c1ccc(C(=O)N(C)C)cc1Cl)CCC2 [Example B-114]	8.40	6.42
CC(=O)Nc1nc2c(s1)-c1c(c(-c3c[nH]cn3)nn1-c1ccc(C3(N(C)C)CC3)cc1)CCC2 [Example B-115]	8.70	7.80
CC(=O)Nc1nc2c(s1)-c1c(c(-c3c[nH]cn3)nn1-c1ccccc1Cl)CCC2 [Example B-116]	7.54	6.83
COc1ccccc1-n1nc(-c2c[nH]cn2)c2c1-c1sc(NC(C)=O)nc1CCC2 [Example B-117]	7.46	6.51
CCc1ccccc1-n1nc(-c2c[nH]cn2)c2c1-c1sc(NC(C)=O)nc1CCC2 [Example B-118, N-[1-(2-Ethyl-phenyl)-3-(1H-imidazol-4-yl)-1,4,5,6-tetrahydro-9-thia-1,2,7-triaza-cyclopenta[e]azulen-8-yl]-acetamide]	7.77	7.26
CC(=O)Nc1nc2c(s1)-c1c(c(-c3c[nH]c(C)n3)nn1-c1ccccc1C)CCC2 [Example B-120, N-[3-(2-Methyl-1H-imidazol-4-yl)-1-o-tolyl-1,4,5,6-tetrahydro-9-thia-1,2,7-triaza-cyclopenta[e]azulen-8-yl]-acetamide]	7.19	6.60
CC(=O)Nc1nc2c(s1)-c1c(c(-c3c[nH]c(C)n3)nn1CC(C)C)CCC2 [Example B-121, N-[1-Isobutyl-3-(2-methyl-1H-imidazol-4-yl)-1,4,5,6-tetrahydro-9-thia-1,2,7-triaza-cyclopenta[e]azulen-8-yl]-acetamide]	7.46	7.14
CCNc1ccc(-c2nn(-c3ccccc3)c3c2CCCc2nc(NC(C)=O)sc2-3)cn1 [Example B-122, N-[3-(6-Ethylamino-pyridin-3-yl)-1-phenyl-1,4,5,6-tetrahydro-9-thia-1,2,7-triaza-cyclopenta[e]azulen-8-yl]-acetamide]	7.49	7.10
CCNc1ccc(-c2nn(CCOC)c3c2CCCc2nc(NC(C)=O)sc2-3)cn1 [Example B-125]	6.94	6.60
CCNc1ccc(-c2nn(-c3cccnc3)c3c2CCCc2nc(NC(C)=O)sc2-3)cn1 [Example B-127]	7.08	6.86
CCNc1ccc(-c2nn(-c3cccc(OC)c3)c3c2CCCc2nc(NC(C)=O)sc2-3)cn1 [Example B-128]	6.97	6.92
C=CCn1nc(-c2ccc(NCC)nc2)c2c1-c1sc(NC(C)=O)nc1CCC2 [Example B-129]	7.03	6.58
CCn1nc(-c2ccc(N)nc2)c2c1-c1sc(NC(C)=O)nc1CCC2 [Example B-130, N-[3-(6-Amino-pyridin-3-yl)-1-ethyl-1,4,5,6-tetrahydro-9-thia-1,2,7-triaza-cyclopenta[e]azulen-8-yl]-acetamide]	7.72	6.75
CCCn1nc(-c2ccc(N)nc2)c2c1-c1sc(NC(C)=O)nc1CCC2 [Example B-131, N-[3-(6-Amino-pyridin-3-yl)-1-propyl-1,4,5,6-tetrahydro-9-thia-1,2,7-triaza-cyclopenta[e]azulen-8-yl]-acetamide]	7.77	7.24
COCCn1nc(-c2ccc(N)nc2)c2c1-c1sc(NC(C)=O)nc1CCC2 [Example B-132, N-[3-(6-Amino-pyridin-3-yl)-1-(2-methoxy-ethyl)-1,4,5,6-tetrahydro-9-thia-1,2,7-triaza-cyclopenta[e]azulen-8-yl]-acetamide]	7.28	6.49
COCCC(=O)Nc1nc2c(s1)-c1c(c(-c3ccc(N)nc3)nn1C(C)C)CCC2 [Example B-133, N-[3-(6-Amino-pyridin-3-yl)-1-isopropyl-1,4,5,6-tetrahydro-9-thia-1,2,7-triaza-cyclopenta[e]azulen-8-yl]-3-methoxy-propionamide]	7.19	6.82
COCCC(=O)Nc1nc2c(s1)-c1c(c(-c3ccc(N)nc3)nn1CC(C)C)CCC2 [Example B-134]	7.22	6.84
CC(C)n1nc(-c2ccc(N)nc2)c2c1-c1sc(NC(=O)CCCN(C)C)nc1CCC2 [Example B-135, N-[3-(6-Amino-pyridin-3-yl)-1-isopropyl-1,4,5,6-tetrahydro-9-thia-1,2,7-triaza-cyclopenta[e]azulen-8-yl]-4-dimethylamino-butyramide]	7.36	7.10
CC(=O)Nc1nc2c(s1)-c1c(c(-c3ccc(C)nc3)nn1-c1cccnc1C)CCC2 [Example B-137, N-[1-(2-Methyl-pyridin-3-yl)-3-(6-methyl-pyridin-3-yl)-1,4,5,6-tetrahydro-9-thia-1,2,7-triaza-cyclopent[e]azulen-8-yl]acetamide]	6.37	5.91
CC(=O)Nc1nc2c(s1)-c1c(c(-c3ccc(N)nc3)nn1-c1cccnc1C)CCC2 [Example B-138, N-[3-(6-Amino-pyridin-3-yl)-1-(2-methyl-pyridin-3-yl)-1,4,5,6-tetrahydro-9-thia-1,2,7-triaza-cyclopent[e]azulen-8-yl]acetamide]	7.42	6.63
CNc1ccc(-c2nn(-c3cccnc3C)c3c2CCCc2nc(NC(C)=O)sc2-3)cn1 [Example B-139, N-[3-(6-Methylamino-pyridin-3-yl)-1-(2-methyl-pyridin-3-yl)-1,4,5,6-tetrahydro-9-thia-1,2,7-triaza-cyclopent[e]azulen-8-yl]acetamide]	7.68	7.15
CNC(=O)Nc1nc2c(s1)-c1c(c(-c3ccc(NC)nc3)nn1-c1cccnc1C)CCC2 [Example B-143, 1-Methyl-3-[3-(6-methylamino-pyridin-3-yl)-1-(2-methyl-pyridin-3-yl)-1,4,5,6-tetrahydro-9-thia-1,2,7-triaza-cyclopent[e]azulen-8-yl]-urea]	7.15	6.37
CNC(=O)Nc1nc2c(s1)-c1c(c(-c3ccc(N)nc3)nn1-c1ccccc1C)CCC2 [Example B-148, 1-[3-(6-Amino-pyridin-3-yl)-1-o-tolyl-1,4,5,6-tetrahydro-9-thia-1,2,7-triaza-cyclopenta[e]azulen-8-yl]-3-methyl-urea]	7.82	6.98
COCCC(=O)Nc1nc2c(s1)-c1c(c(-c3ccc(N)nc3)nn1-c1ccccc1F)CCC2 [Example E-15, N-[3-(6-Amino-pyridin-3-yl)-1-(2-fluoro-phenyl)-1,4,5,6-tetrahydro-9-thia-1,2,7-triaza-cyclopenta[e]azulen-8-yl]-3-methoxy-propionamide]	7.33	6.86
CN(C)CCCC(=O)Nc1nc2c(s1)-c1c(c(-c3ccc(N)nc3)nn1-c1ccccc1F)CCC2 [Example E-16, N-[3-(6-Amino-pyridin-3-yl)-1-(2-fluoro-phenyl)-1,4,5,6-tetrahydro-9-thia-1,2,7-triaza-cyclopenta[e]azulen-8-yl]-4-dimethylamino-butyramide]	7.89	7.49
CN(C)CC(=O)Nc1nc2c(s1)-c1c(c(-c3ccc(N)nc3)nn1-c1ccccc1F)CCC2 [Example E-17, N-[3-(6-Amino-pyridin-3-yl)-1-(2-fluoro-phenyl)-1,4,5,6-tetrahydro-9-thia-1,2,7-triaza-cyclopenta[e]azulen-8-yl]-2-dimethylamino-acetamide]	7.19	6.77
COCC(=O)Nc1nc2c(s1)-c1c(c(-c3ccc(N)nc3)nn1-c1ccccc1F)CCC2 [Example E-18, N-[3-(6-Amino-pyridin-3-yl)-1-(2-fluoro-phenyl)-1,4,5,6-tetrahydro-9-thia-1,2,7-triaza-cyclopenta[e]azulen-8-yl]-2-methoxy-acetamide]	7.23	7.06
